Read-outs that look alike come from different tables or passages of the source.
Experiments:
[1] = test system: H460 (human non-small cell lung carcinoma); test: MTT growth inhibition assay, H460; type: cell-based
Procedure: (§1) Target compounds 12a–t were evaluated for in vitro cytotoxicity against four human tumor cell lines, including H460 (non-small cell lung carcinoma), HeLA (human cervical carcinoma), EC9706 (human esophageal squamous cell carcinoma), and T24 (human bladder carcinoma), using HaCaT (human immortalized epidermal cells) as a human non-malignant cell line. Etoposide (3) was included as a positive control. The screening procedure was based on the 3-(4, 5-dimethylthiazol-2-yl)-2, 5-diphenyltetrazoliun bromide (MTT) growth inhibition assay with triplicate experiments, and the results are summarized in Table 1.
(§2) The four human cancer cell lines and a normal human epidermal cell line of the screening panel, including H460 (human non-small cell lung carcinoma), HeLA (human cervical carcinoma), EC9706 (human esophageal squamous cell carcinoma), T24 (human bladder carcinoma), and HaCaT (human immortalized epidermal cells), were purchased from American Type Culture Collection (ATCC, Manassas, VA, U.S.A.). H460, EC9706, and T24 were maintained in RPMI 1640 medium containing 10% Fetal Bovine Serum, 100 units/ml penicillin, 100 μg/ml streptomycin under humidified incubator with 5% CO2 atmosphere at 37°C. HeLA and HaCaT were maintained in Dulbecco′s […] (DMEM) supplemented with 10% Fetal Bovine Serum 100 units/ml penicillin, 100 μg/ml streptomycin in a humidified incubator and 5% CO2 atmosphere at 37°C. Logarithmically growing cells were used for the following experiments.
(§3) The cytotoxicity of the synthesized compounds 12a–t against a panel of human cell lines was determined by the 3-(4,5-dimethylthiazol-2-yl)-2,5-diphenyltetrazoliun bromide (MTT) growth inhibition assay. The five human cell lines were, respectively, plated in 96-well-culture plates at the density of 1 × 10^5 cells per well and incubated for 24 h. Cells were exposed to different concentrations of synthetic podophyllotoxin derivatives for 48 h. MTT was added with a dose of 5 mg/mL in phosphate-buffered saline. After incubation for 4 h at 37°C, the purple formazan crystals were dissolved with […] dimethyl sulfoxide and the absorbance was measured at 570 nm in an ELISA reader. Antiproliferative activity was expressed using the IC50 value defined as the concentration of synthetic podophyllotoxin derivatives inhibiting cell proliferation by 50%. The cell viability ratio was calculated by the following formula: cell viability ratio (%) = OD treated /OD control × 100% (Ma et al., [2014]).

[2] = test system: HeLA (human cervical carcinoma); test: MTT growth inhibition assay, HeLA; type: cell-based; details: 48 h
Procedure: as §1, §2, §3

[3] = test system: T24 (human bladder carcinoma); test: MTT growth inhibition assay, T24; type: cell-based; details: T24, 48 h
Procedure: as §1, §2, §3

[4] = test system: HaCaT (human immortalized epidermal cells); test: MTT growth inhibition assay, HaCaT normal cells; type: cell-based; details: 48 h
Procedure: as §1, §2, §3

[5] = test system: EC9706 (human esophageal squamous cell carcinoma); test: MTT growth inhibition assay, EC9706; type: cell-based
Procedure: as §1, §2, §3

[6] = test system: four human cancer cell lines (EC-9706, HeLA, T-24 and H460) and a normal human epidermal cell line (HaCaT); test: MTT growth inhibition assay, whole cell line panel; type: cell-based; details: read-out: IC50 values across the cell lines
Procedure: as §1, with “1. […]” for “1.”
The cytotoxicity of the synthesized compounds 12a–t against a panel of human cell lines was determined by the 3-(4,5-dimethylthiazol-2-yl)-2,5-diphenyltetrazoliun bromide (MTT) growth inhibition assay. […] After incubation for 4 h at 37°C, the purple formazan crystals were dissolved with […] dimethyl sulfoxide and the absorbance was measured at 570 nm in an ELISA reader. […] The cell viability ratio was calculated by the following formula: cell viability ratio (%) = OD treated /OD control × 100% (Ma et al., [2014]).

[7] = NCI-H460, 48 h, read-out: IC50 (μM) H460
[8] = Homo sapiens, read-out: IC50 (μM) HeLA, MTT, 48 h, n = 3
[9] = read-out: IC50 (μM) T24, MTT, 48 h, n = 3
[10] = read-out: IC50 (μM) HaCaT, MTT, 48 h, n = 3, normal cell line
[11] = EC9706, 48 h, read-out: IC50 (μM) EC9706

Compound	IC50 [1, 7]	IC50 [2, 8]	IC50 [3, 9]	melting point	IC50 [4, 10]	IC50 [5, 11]	IC50 [6]	IC50 ([2]; read-out: IC50 (μM) HeLA, MTT, n = 3)	IC50 ([6]; MTT, span over the cell line panel)	IC50 ([1]; NCI-H460, MTT, 48 h, n = 3, read-out: IC50 (μM) H460)	IC50 ([2]; Homo sapiens, MTT, n = 3, read-out: IC50 (μM) HeLA)	IC50 ([3]; MTT, 48 h, n = 3, read-out: IC50 (μM) T24)	IC50 ([4]; MTT, n = 3, normal cell line, read-out: IC50 (μM) HaCaT)	IC50 ([5]; EC9706, MTT, 48 h, n = 3, read-out: IC50 (μM) EC9706)
COc1cc([C@@H]2c3cc4c(cc3[C@@H](NC(=O)CN3CCCC3)[C@H]3COC(=O)[C@H]23)OCO4)cc(OC)c1O [Compound 12a]	9.61 ± 0.22 µM	12.7 ± 1.38 µM	> 50 µM	113 to 116 °C	18.2 ± 1.28 µM	> 50 µM	–	–	–	–	–	–	–	–
COc1cc([C@@H]2c3cc4c(cc3[C@@H](NC(=O)CN3CCCCC3)[C@H]3COC(=O)[C@H]23)OCO4)cc(OC)c1O [Compound 12b]	5.91 ± 0.65 µM	5.72 ± 0.74 µM	> 50 µM	107 to 110 °C	5.17 ± 0.36 µM	> 50 µM	–	–	–	–	–	–	–	–
COc1cc([C@@H]2c3cc4c(cc3[C@@H](NC(=O)CN3CCCCC3)[C@H]3COC(=O)[C@H]23)OCO4)cc(OC)c1OC [Compound 12c]	> 50 µM	> 50 µM	> 50 µM	229 to 231 °C	1.89 ± 0.27 µM	> 50 µM	–	–	–	–	–	–	–	–
COc1cc([C@@H]2c3cc4c(cc3[C@@H](NC(=O)CN3CCOCC3)[C@H]3COC(=O)[C@H]23)OCO4)cc(OC)c1O [Compound 12d, 4β-N-[2′′-(morpholino)-acetamide]-4′-demethylpodophyllotoxin]	> 50 µM	> 50 µM	> 50 µM	109 to 111 °C	> 50 µM	> 50 µM	–	–	–	–	–	–	–	–
COc1cc([C@@H]2c3cc4c(cc3[C@@H](NC(=O)CN3CCOCC3)[C@H]3COC(=O)[C@H]23)OCO4)cc(OC)c1OC [Compound 12e, 4β-N-[(2′′-morpholino)-acetamide]-podophyllotoxin]	> 50 µM	> 50 µM	> 50 µM	119 to 121 °C	> 50 µM	> 50 µM	–	–	–	–	–	–	–	–
CCCNCC(=O)N[C@@H]1c2cc3c(cc2[C@@H](c2cc(OC)c(O)c(OC)c2)[C@H]2C(=O)OC[C@@H]21)OCO3 [Compound 12f]	2.54 ± 0.34 µM	23.9 ± 1.04 µM	18.6 ± 1.57 µM	199 to 202 °C	2.59 ± 0.13 µM	11.7 ± 0.26 µM	–	–	–	–	–	–	–	–
CCCCNCC(=O)N[C@@H]1c2cc3c(cc2[C@@H](c2cc(OC)c(O)c(OC)c2)[C@H]2C(=O)OC[C@@H]21)OCO3 [Compound 12h]	1.57 ± 0.37 µM	1.21 ± 0.31 µM	12.1 ± 1.28 µM	115 to 118 °C	1.54 ± 0.29 µM	22.8 ± 0.32 µM	1.2 to 22.8 µM	–	–	–	–	–	–	–
CCCCNCC(=O)N[C@@H]1c2cc3c(cc2[C@@H](c2cc(OC)c(OC)c(OC)c2)[C@H]2C(=O)OC[C@@H]21)OCO3 [Compound 12i]	37.8 ± 1.01 µM	> 50 µM	> 50 µM	92 to 95 °C	> 50 µM	> 50 µM	–	–	–	–	–	–	–	–
CCN(CC)CC(=O)N[C@@H]1c2cc3c(cc2[C@@H](c2cc(OC)c(O)c(OC)c2)[C@H]2C(=O)OC[C@@H]21)OCO3 [Compound 12k]	> 50 µM	45.8 ± 0.71 µM	> 50 µM	106 to 108 °C	> 50 µM	> 50 µM	–	–	–	–	–	–	–	–
COc1cc([C@@H]2c3cc4c(cc3[C@@H](NC(=O)CN(CCO)CCO)[C@H]3COC(=O)[C@H]23)OCO4)cc(OC)c1O [Compound 12l]	> 50 µM	> 50 µM	> 50 µM	212 to 214 °C	4.21 ± 0.17 µM	> 50 µM	–	–	–	–	–	–	–	–
COc1cc([C@@H]2c3cc4c(cc3[C@@H](NC(=O)CN(CCO)CCO)[C@H]3COC(=O)[C@H]23)OCO4)cc(OC)c1OC [Compound 12m]	> 50 µM	36.4 ± 0.49 µM	> 50 µM	105 to 107 °C	> 50 µM	> 50 µM	–	–	–	–	–	–	–	–
COc1cc([C@@H]2c3cc4c(cc3[C@@H](NC(=O)CNCc3ccccc3)[C@H]3COC(=O)[C@H]23)OCO4)cc(OC)c1O [Compound 12n]	16.5 ± 0.39 µM	6.26 µM	> 50 µM	141 to 143 °C	13.3 ± 0.8 µM	40.1 ± 2.43 µM	–	6.25 ± 0.21 µM	–	–	–	–	–	–
COc1cc([C@@H]2c3cc4c(cc3[C@@H](NC(=O)CNCc3ccccc3)[C@H]3COC(=O)[C@H]23)OCO4)cc(OC)c1OC [Compound 12o]	26.9 ± 0.92 µM	8.55 ± 0.28 µM	> 50 µM	111 to 113 °C	2.14 ± 0.33 µM	11.3 ± 0.22 µM	–	–	–	–	–	–	–	–
COc1cc([C@@H]2c3cc4c(cc3[C@@H](NC(=O)CNc3ccc(F)cc3)[C@H]3COC(=O)[C@H]23)OCO4)cc(OC)c1O [Compound 12p]	9.75 ± 0.26 µM	> 50 µM	> 50 µM	159 to 162 °C	> 50 µM	> 50 µM	–	–	–	–	–	–	–	–
COc1ccc(CCNCC(=O)N[C@@H]2c3cc4c(cc3[C@@H](c3cc(OC)c(O)c(OC)c3)[C@H]3C(=O)OC[C@@H]32)OCO4)cc1OC [Compound 12q]	3.43 ± 0.17 µM	4.57 ± 0.3 µM	> 50 µM	229 to 231 °C	3.69 ± 0.19 µM	20.7 ± 0.72 µM	–	–	–	–	–	–	–	–
COc1ccc(CCNCC(=O)N[C@@H]2c3cc4c(cc3[C@@H](c3cc(OC)c(OC)c(OC)c3)[C@H]3C(=O)OC[C@@H]32)OCO4)cc1OC [Compound 12r]	> 50 µM	> 50 µM	> 50 µM	106 to 108 °C	> 50 µM	> 50 µM	–	–	–	–	–	–	–	–
COc1cc([C@@H]2c3cc4c(cc3[C@@H](NC(=O)CNCCc3ccc(O)cc3)[C@H]3COC(=O)[C@H]23)OCO4)cc(OC)c1O [Compound 12s]	5.94 ± 0.18 µM	2.27 ± 0.26 µM	12.7 ± 0.73 µM	234 to 236 °C	8.67 ± 0.72 µM	14.3 ± 0.69 µM	–	–	–	–	–	–	–	–
COc1cc([C@@H]2c3cc4c(cc3[C@@H](NC(=O)CNCCc3ccc(O)cc3)[C@H]3COC(=O)[C@H]23)OCO4)cc(OC)c1OC [Compound 12t]	42.1 ± 1.21 µM	> 50 µM	> 50 µM	116 to 119 °C	> 50 µM	> 50 µM	–	–	–	–	–	–	–	–
COc1cc([C@@H]2c3cc4c(cc3[C@@H](O[C@@H]3O[C@@H]5CO[C@@H](C)O[C@H]5[C@H](O)[C@H]3O)[C@H]3COC(=O)[C@H]23)OCO4)cc(OC)c1O [Etoposide, etoposide, reference compound]	–	–	–	–	–	–	–	–	8.4 to 78.2 µM	43.2 ± 1.45 µM	3.12 ± 0.35 µM	8.43 ± 0.33 µM	48.7 ± 1.69 µM	> 50 µM

From publication PMC6491884, “Synthesis and Biological Evaluation of 4β-N-Acetylamino Substituted Podophyllotoxin Derivatives as Novel Anticancer Agents” (Frontiers in Chemistry, 2019)
